Results taken from US10966994B2, “Thromboxane receptor antagonists” (ATXA THERAPEUTICS LIMITED, priority 2015, dated 2021).

Assays:
MCT-induced PAH = assay: Monocrotoline (MCT)-induced model of pulmonary arterial hypertension (PAH) in rats; assay type: in vivo, rat; conditions: for lumen: total vessel diameter ratio versus animals treated with MCT-alone: day 28, oral BID, NTP42 and TP20 0.25 mg/kg/dose, Sildenafil 50 mg/kg/dose
Description: FIGS. 19-23 show the efficacy of NTP42 in the monocrotoline (MCT)-induced model of pulmonary arterial hypertension (PAH) in rats. In brief, male Wistar/Kyoto rats were given a single dose of MCT (60 mg/kg, subcutaneously) and then treated with twice daily doses (oral dosing) for 28 days with either the drug vehicle, the test article NTP42 (0.25 mg/kg/dose, BID) or with the reference compounds Sildenafil (50 mg/kg/dose, BID) or TP20 (0.25 mg/kg/dose, BID). As a control, a group of rats were left untreated, i.e., no MCT or therapeutic drugs. At Day 28, post-MCT induction, rats were anaesthetised for cardiac surgery & hemodynamic parameters recorded. Thereafter, the trachea, heart & lungs were removed en masse, the wet weights of the heart & lungs recorded and then the lungs were harvested, fixed and processed for histopathology.
Aperio's ImageScope was used to analyze the digitally scanned H&E stained lung sections, where 10 random squares (approx. size or each square=1×10^6 μm^2) per lower, middle and upper section of lung tissue were selected for analysis. Within each square, all blood arterioles (complete arterioles within each square and those touching the right & bottom were assessed but not the left or top of the squares) were measured in ImageScope for luminal and total vessel diameter where the ratio of lumen to total vessel diameter was determined for each arteriole.
FIGS. 24-27 show the effect of the test articles on the mean (±S.E.M.) lumen: total vessel diameter ratio for all arterioles (Total) and the arterioles categorized by size: small, <50 μm total diameter; medium, 50-100 μm and large, >100 μm.
FIG. 27 presents data representing the mean (±SEM) lumen: total vessel diameter ratio for large arterioles (>100 μm).

TP = target: T1, TP (Homo sapiens, UniProt P21731); assay: U44069-mediated [Ca2+]i mobilization (CEREP); assay type: cell-based; conditions: CEREP assay, agonist U44069; read-out: IC50 Value for Inhibition of U44069-Mediated [Ca2+]i Mobilization
T1 construct: CEREP
T1 sequence (P21731 1-343): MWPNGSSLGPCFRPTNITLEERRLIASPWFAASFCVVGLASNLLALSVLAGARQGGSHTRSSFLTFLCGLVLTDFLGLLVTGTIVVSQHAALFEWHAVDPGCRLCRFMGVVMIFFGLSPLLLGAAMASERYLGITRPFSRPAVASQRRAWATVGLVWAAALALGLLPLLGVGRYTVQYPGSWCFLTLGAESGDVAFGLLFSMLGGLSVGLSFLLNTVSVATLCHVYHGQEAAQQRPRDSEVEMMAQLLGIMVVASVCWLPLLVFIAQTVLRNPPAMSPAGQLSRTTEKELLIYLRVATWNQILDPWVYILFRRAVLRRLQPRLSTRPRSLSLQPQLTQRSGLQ
Text: FIG. 18 presents the effect of NTP42 and NTP48 on TP- or U44069-mediated signaling (CEREP use the related U44069 rather than U46619), including IC50 values for inhibition (see also Table 4). Those effects indicate that NTP42 & NTP48 are potent antagonists of U46609 or TP. The differences in IC50 values may be attributed to the differences in the particular conditions of the assay, including differences in cell type, agonist, calcium indicator, etc.
Table 4 is an example of the IC50 values of NTP42 and NTP48 to antagonize TP-mediated [Ca^2+]i mobilization following stimulation of cells with the alternative TP agonist […].

Row | SMILES | efficacy in the MCT-induced PAH model (hemodynamic and histological features) (MCT-induced PAH; MCT 60 mg/kg s.c., oral 0.25 mg/kg/dose BID for 28 days) | lumen: total vessel diameter ratio versus animals treated with MCT-alone (MCT-induced PAH) | IC50 (TP) [nM]
1 | CC(C)(C)NC(=O)NS(=O)(=O)c1cc(C#N)ccc1Oc1cccc(-c2ccc(OC(F)F)cc2)c1 [NTP42] | efficacious | significantly increased | 3.28 ± 0.34
2 | CN(C)C(=O)c1ccc(-c2cccc(Oc3ccc(C#N)cc3S(=O)(=O)NC(=O)NC(C)(C)C)c2)cc1 [NTP48, 4-[3-[2-(tert-Butylcarbamoylsulfamoyl)-4-cyano-phenoxy]phenyl]-N,N-dimethyl-benzamide] |  |  | 7.71 ± 0.96
3 | COc1ccc(-c2cccc(Oc3ccc([N+](=O)[O-])cc3S(=O)(=O)NC(=O)NC(C)(C)C)c2)cc1 [TP20, reference compound] |  | significantly increased | 
